According to patent US7897602B2, “Indolinone compounds as kinase inhibitors” (Development Center for Biotechnology, priority 2009, dated 2011):

Assays:
Format in all cases: biochemical
Flt3 kinase = target: T1, Flt3 kinase (Homo sapiens, UniProt P36888); experiment: Flt3 kinase assay (33P incorporation into Poly(Glu-Tyr)); conditions: 100 nM test compound; read-out: Inhibition at 100 nM (%) Flt-3
T1 construct: recombinant N-terminal 6×His-tagged Flt3 kinase domain construct expressed from baculovirus; 6xHis (N); made in house
T1 sequence (P36888 610-943 limits assumed): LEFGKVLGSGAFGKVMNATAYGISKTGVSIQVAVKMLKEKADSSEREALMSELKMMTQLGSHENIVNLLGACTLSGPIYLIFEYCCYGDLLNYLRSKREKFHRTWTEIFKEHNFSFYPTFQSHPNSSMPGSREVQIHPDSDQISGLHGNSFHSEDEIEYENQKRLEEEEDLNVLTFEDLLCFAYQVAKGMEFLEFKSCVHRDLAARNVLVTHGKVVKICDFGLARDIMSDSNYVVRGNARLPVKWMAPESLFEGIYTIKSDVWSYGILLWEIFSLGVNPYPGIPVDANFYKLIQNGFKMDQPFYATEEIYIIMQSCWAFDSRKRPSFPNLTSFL
Outline: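 Baculovirus-expressed His-tagged Flt3 kinase domain (5 ng) with Poly(Glu-Tyr) 4:1 substrate, 100 μM ATP plus [33P]-γ-ATP, in MOPS pH 7.0 buffer, 30 min at 30 °C. Compound tested at a single 100 nM concentration; filter-bound radioactivity counted and percent inhibition calculated relative to DMSO control.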

Aurora A kinase = target: T2, Aurora A kinase (Homo sapiens, UniProt O14965); experiment: Aurora A kinase assay ([γ-33P]ATP, CHOCKtide substrate); conditions: for inhibition at 1 µM: 1.0 μM test compound
T2 construct: purchased Upstate
T2 sequence (O14965 1-403): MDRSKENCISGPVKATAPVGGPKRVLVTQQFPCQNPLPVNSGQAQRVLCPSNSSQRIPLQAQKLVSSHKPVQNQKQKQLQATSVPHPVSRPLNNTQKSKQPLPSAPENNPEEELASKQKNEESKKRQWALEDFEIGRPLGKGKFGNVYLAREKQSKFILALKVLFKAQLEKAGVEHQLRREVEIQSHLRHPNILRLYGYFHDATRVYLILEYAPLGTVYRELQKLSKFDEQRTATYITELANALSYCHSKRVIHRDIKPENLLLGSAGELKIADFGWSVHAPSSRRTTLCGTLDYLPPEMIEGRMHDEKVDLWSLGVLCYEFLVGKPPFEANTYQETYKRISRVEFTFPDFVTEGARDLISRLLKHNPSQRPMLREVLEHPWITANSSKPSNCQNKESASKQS
Outline: (§1)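 Recombinant Aurora A (1 ng) or Aurora B (2.5 ng) incubated with test compound, CHOCKtide (1 μg) and [γ-33P]ATP/ATP at 10 μM (Aurora A) or 40 μM (Aurora B), 30 min at 33 °C. Stopped with phosphoric acid; filter-bound 33P counted; IC50 = half-maximal inhibition.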

Aurora B kinase = target: T3, Aurora B kinase (Homo sapiens, UniProt Q96GD4); experiment: Aurora B kinase assay ([γ-33P]ATP, CHOCKtide substrate); conditions: for inhibition at 1 µM: 1.0 μM test compound
T3 construct: purchased Cell signaling
Outline: as §1

VEGFR2 kinase = target: T4, VEGFR2 kinase (Homo sapiens, UniProt P35968); experiment: VEGFR2 kinase assay (33P incorporation into Poly(Glu-Tyr)); conditions: 500 nM test compound; read-out: Inhibition at 500 nM (%) VEGFr-2
T4 construct: recombinant N-terminal 6×His-tagged VEGFR2 kinase domain construct expressed by baculovirus; 6xHis (N); made in house
Outline: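 Recombinant baculovirus-expressed N-terminal His6-tagged VEGFR2 kinase domain (6.25 ng) phosphorylated poly(Glu-Tyr) 4:1 with 100 μM ATP plus [33P]-γ-ATP in MOPS pH 7.0, 30 °C, 30 min. Test compound was at 500 nM (4% DMSO). Filter-retained radioactivity relative to DMSO control gave % inhibition.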

T4 sequence (P35968 834-1162 limits assumed): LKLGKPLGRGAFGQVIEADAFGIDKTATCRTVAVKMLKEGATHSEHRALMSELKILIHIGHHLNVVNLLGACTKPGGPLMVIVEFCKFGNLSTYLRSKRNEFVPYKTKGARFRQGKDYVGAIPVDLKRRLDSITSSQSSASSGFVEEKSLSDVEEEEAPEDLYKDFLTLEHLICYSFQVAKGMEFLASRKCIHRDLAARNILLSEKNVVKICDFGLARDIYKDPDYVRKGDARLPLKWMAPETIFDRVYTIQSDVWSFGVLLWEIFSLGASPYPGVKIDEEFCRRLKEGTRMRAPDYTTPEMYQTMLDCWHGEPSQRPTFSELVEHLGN
T3 sequence (Q96GD4 whole entry): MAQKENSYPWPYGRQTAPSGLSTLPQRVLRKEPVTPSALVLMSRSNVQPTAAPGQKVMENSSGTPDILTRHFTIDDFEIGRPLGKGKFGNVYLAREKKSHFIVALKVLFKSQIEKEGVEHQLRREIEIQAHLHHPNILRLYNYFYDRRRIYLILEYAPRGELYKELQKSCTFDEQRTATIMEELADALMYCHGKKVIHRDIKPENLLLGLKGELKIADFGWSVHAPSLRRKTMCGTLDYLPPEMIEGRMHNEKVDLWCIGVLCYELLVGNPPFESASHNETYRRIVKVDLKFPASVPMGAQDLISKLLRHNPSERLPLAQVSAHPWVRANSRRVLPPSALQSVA

SMILES | inhibition at 0.1 µM (Flt3 kinase) [%] | inhibition at 1 µM (Aurora A kinase) [%] | inhibition at 1 µM (Aurora B kinase) [%] | inhibition at 0.5 µM (VEGFR2 kinase) [%] | IC50 (Aurora A kinase) [nM] | IC50 (Aurora B kinase) [nM]
CCOC(=O)CCc1c(/C=C2\C(=O)Nc3cc(Br)ccc32)[nH]c2c1C(=O)CCC2 [DCB-70130, (Z)-ethyl 3-(2-((6-bromo-2-oxoindolin-3-ylidene)methyl)-4-oxo-4,5,6,7-tetrahydro-1H-indol-3-yl)propanoate] | 89.1 | 22.7 | 12.2 | 69.8 | – | –
O=C(O)CCc1c(/C=C2\C(=O)Nc3ccc(NCc4ccccc4)cc32)[nH]c2c1C(=O)CCC2 [DCB-70132, (Z)-3-(2-((5-(benzylamino)-2-oxoindolin-3-ylidene)methyl)-4-oxo-4,5,6,7-tetrahydro-1H-indol-3-yl)propanoic acid] | 3.7 | 33.4 | 26.9 | 15.8 | – | –
O=C(O)CCc1c(/C=C2\C(=O)Nc3cc(Br)ccc32)[nH]c2c1C(=O)CCC2 [DCB-70133, (Z)-3-(2-((6-bromo-2-oxoindolin-3-ylidene)methyl)-4-oxo-4,5,6,7-tetrahydro-1H-indol-3-yl)propanoic acid] | 6.1 | 2.6 | 6 | 54.2 | – | –
O=C(O)CCc1c(/C=C2\C(=O)Nc3ccc(NS(=O)(=O)c4ccc(F)cc4)cc32)[nH]c2c1C(=O)CCC2 [DCB-70145, (Z)-3-(2-((5-(4-fluorophenylsulfonamido)-2-oxoindolin-3-ylidene)methyl)-4-oxo-4,5,6,7-tetrahydro-1H-indol-3-yl)propanoic acid] | 24 | 90.3 | 75.2 | 66.6 | 45.7 | 449
CCOC(=O)CCc1c(/C=C2\C(=O)Nc3ccc(NS(=O)(=O)c4ccccc4)cc32)[nH]c2c1C(=O)CCCC2 [DCB-70146, (Z)-ethyl 3-(4-oxo-2-((2-oxo-5-(phenylsulfonamido)indolin-3-ylidene)methyl)-1,4,5,6,7,8-hexahydrocyclohepta[b]pyrrol-3-yl)propanoate] | 59.9 | 81.3 | 75.1 | 59.7 | 86.3 | 439
O=C(O)CCc1c(/C=C2\C(=O)Nc3ccc(NS(=O)(=O)c4ccccc4)cc32)[nH]c2c1C(=O)CCCC2 [DCB-70147, (Z)-3-(4-oxo-2-((2-oxo-5-(phenylsulfonamido)indolin-3-ylidene)methyl)-1,4,5,6,7,8-hexahydrocyclohepta[b]pyrrol-3-yl)propanoic acid] | 43.8 | 91.9 | 61.3 | 71.3 | 68.4 | –

Other lines, results leading:

inhibition at 0.1 µM (Flt3 kinase) [%] | inhibition at 1 µM (Aurora A kinase) [%] | inhibition at 1 µM (Aurora B kinase) [%] | inhibition at 0.5 µM (VEGFR2 kinase) [%] | IC50 (Aurora A kinase) [nM] | IC50 (Aurora B kinase) [nM] | SMILES
85.1 | 70.7 | 44.5 | 65.9 | – | – | CCOC(=O)CCc1c(/C=C2\C(=O)Nc3ccc(NCc4ccccc4)cc32)[nH]c2c1C(=O)CCC2 [DCB-70131, (Z)-ethyl 3-(2-((5-(benzylamino)-2-oxoindolin-3-ylidene)methyl)-4-oxo-4,5,6,7-tetrahydro-1H-indol-3-yl)propanoate]
40.9 | 16.4 | 5.7 | 20.7 | – | – | CCOC(=O)CCc1c(/C=C2\C(=O)Nc3ccc(NC(=O)Nc4ccccc4)cc32)[nH]c2c1C(=O)CCC2 [DCB-70134, (Z)-ethyl 3-(4-oxo-2-((2-oxo-5-(3-phenylureido)indolin-3-ylidene)methyl)-4,5,6,7-tetrahydro-1H-indol-3-yl)propanoate]
20.3 | 7.4 | -6.6 | 44.6 | – | – | CCOC(=O)CCc1c(/C=C2\C(=O)Nc3ccc(NC(=O)Nc4ccc(Br)cc4)cc32)[nH]c2c1C(=O)CCC2 [DCB-70135, (Z)-ethyl 3-(2-((5-(3-(4-bromophenyl)ureido)-2-oxoindolin-3-ylidene)methyl)-4-oxo-4,5,6,7-tetrahydro-1H-indol-3-yl)propanoate]
39.3 | 26.4 | 0.1 | 31.7 | – | – | CCOC(=O)CCc1c(/C=C2\C(=O)Nc3ccc(NC(=O)Nc4ccc(F)cc4)cc32)[nH]c2c1C(=O)CCC2 [DCB-70136, (Z)-ethyl 3-(2-((5-(3-(4-fluorophenyl)ureido)-2-oxoindolin-3-ylidene)methyl)-4-oxo-4,5,6,7-tetrahydro-1H-indol-3-yl)propanoate]
33.8 | 12.6 | -3.3 | 82.9 | – | – | CCOC(=O)CCc1c(/C=C2\C(=O)Nc3ccc(NC(=O)Nc4ccc(Cl)c(C(F)(F)F)c4)cc32)[nH]c2c1C(=O)CCC2 [DCB-70137, (Z)-ethyl 3-(2-((5-(3-(4-chloro-3-(trifluoromethyl)phenyl)ureido)-2-oxoindolin-3-ylidene)methyl)-4-oxo-4,5,6,7-tetrahydro-1H-indol-3-yl)propanoate]
5.5 | 31.1 | 5.2 | 27.6 | – | – | CCOC(=O)CCc1c(/C=C2\C(=O)Nc3ccc(NC(=O)c4ccc([N+](=O)[O-])cc4)cc32)[nH]c2c1C(=O)CCC2 [DCB-70140, (Z)-ethyl 3-(2-((5-(4-nitrobenzamido)-2-oxoindolin-3-ylidene)methyl)-4-oxo-4,5,6,7-tetrahydro-1H-indol-3-yl)propanoate]
38.7 | 82 | 61.9 | 40.8 | 270 | 448 | CCOC(=O)CCc1c(/C=C2\C(=O)Nc3ccc(NS(=O)(=O)c4ccc(F)cc4)cc32)[nH]c2c1C(=O)CCC2 [DCB-70144, (Z)-ethyl 3-(2-((5-(4-fluorophenylsulfonamido)-2-oxoindolin-3-ylidene)methyl)-4-oxo-4,5,6,7-tetrahydro-1H-indol-3-yl)propanoate]
